pIC50: −log10 of the molar value.
Legend:
B16 = test: Tested for cytotoxic activity against B16 mouse melanoma cells in MTT assay; type: functional, cell-based
DA-3 cell line = test: Tested for cytotoxic activity against DA-3 mouse mammary adenocarcinoma cells in MTT assay; type: functional, cell-based
HT-29 = test: Tested for cytotoxic activity against HT-29 human colon adenocarcinoma cells in MTT assay; type: functional, cell-based
MCF7 [1] = test: Tested for cytotoxic activity against MCF7-WT human breast adenocarcinoma cells in MTT assay; type: functional, cell-based
[2] = Half-life period was determined in mouse blood; type: ADME, organism-based
MCF7 [3] = test: Tested for cytotoxic activity against MCF7-WT human breast adenocarcinoma cells in MTT assay.; type: functional, cell-based

half-life [2] | SMILES | pIC50 (B16) | pIC50 (DA-3 cell line) | pIC50 (HT-29) | pIC50 (MCF7 [1]) | pIC50 (MCF7 [3])
– | CC(=O)O[C@@H]1OC(=O)[C@](O)(C(C)=O)[C@@H]1C | < 4.30 | < 4.30 | < 4.30 | < 4.30 | –
– | CC(=O)O[C@@H]1OC(=O)[C@@](C)(C(C)=O)[C@@H]1C | 4.85 | 5.05 | 4.92 | < 5.00 | –
< 5 min | CC(=O)O[C@@H]1OC(=O)[C@](C)(C(C)=O)[C@@H]1C | 5.40 | 5.15 | 5.30 | 5.22 | –
< 5 min | CC(=O)[C@@]1(C)C(=O)O[C@@H](OC(=O)C(C)(C)C)[C@H]1C | 5.70 | 6.00 | 5.70 | 5.52 | –
– | CC(=O)O[C@@H]1OC(=O)[C@](Cc2ccccc2)(C(C)=O)[C@@H]1C | 4.39 | 4.35 | 4.40 | – | 4.32
– | CC(=O)O[C@@H]1OC(=O)[C@](OC(=O)c2ccccc2)(C(C)=O)[C@@H]1C | 5.22 | 5.52 | 5.10 | 4.66 | –
– | CC(=O)O[C@@H]1OC(=O)[C@@](C(C)=O)(C2SCCCS2)[C@@H]1C | < 4.30 | < 4.30 | < 4.30 | < 4.30 | –
– | CC(=O)CC[C@]1(C(C)=O)C(=O)O[C@@H](OC(C)=O)[C@H]1C | 5.15 | 5.10 | 5.15 | 5.22 | –
– | CC(=O)O[C@@H]1OC(=O)[C@](Br)(C(C)=O)[C@@H]1C | 5.05 | 5.22 | 4.92 | 4.77 | –
– | CC(=O)O[C@@H]1OC(=O)[C@](C)(C(=O)CBr)[C@@H]1C | 5.22 | 5.40 | 5.22 | 5.40 | –
– | CC(=O)O[C@@H]1OC(=O)[C@@](O)(C(C)=O)[C@@H]1C | < 4.30 | < 4.30 | < 4.30 | < 4.30 | –
– | CC(=O)O[C@@H]1OC(=O)[C@](OC(C)=O)(C(C)=O)[C@@H]1C | < 4.30 | < 4.30 | < 4.30 | < 4.30 | –
– | CCO[C@@H]1OC(=O)[C@@](C)(C(C)=O)[C@@H]1C | < 4.30 | < 4.30 | < 4.30 | < 4.30 | –
– | CC(=O)O[C@@H]1OC(=O)[C@@](C)(C(=O)c2ccccc2)[C@@H]1C | 5.15 | 4.82 | 5.15 | – | 4.82
– | CC(=O)O[C@@H]1OC(=O)[C@@](C)(C(C)=O)[C@@H]1C(C)C | < 4.30 | < 4.30 | < 4.30 | < 4.30 | –
– | CC(=O)[C@]1(C)C(=O)O[C@@H](OC(=O)c2ccccc2)[C@H]1C | 5.30 | 5.70 | 5.22 | 5.10 | –
< 5 min | CC(=O)[C@@]1(C)C(=O)O[C@@H](OC(=O)c2ccccc2)[C@H]1C | 6.00 | 6.00 | 6.00 | 5.52 | –
– | CCO[C@@H]1OC(=O)[C@](C)(C(C)=O)[C@@H]1C | < 4.30 | < 4.30 | < 4.30 | < 4.30 | –
– | CC(=O)O[C@@H]1OC(=O)[C@@](Cc2ccccc2)(C(C)=O)[C@@H]1C | 4.35 | 4.36 | 4.41 | 4.29 | –
– | CC(=O)O[C@@H]1OC(=O)[C@](C)(C(C)=O)[C@@H]1C(C)C | < 4.30 | < 4.30 | < 4.30 | < 4.30 | –
– | CC(=O)O[C@@H]1OC(=O)[C@@](OC(C)=O)(C(C)=O)[C@@H]1C | < 4.30 | < 4.30 | < 4.30 | < 4.30 | –
– | CC(=O)O[C@@H]1OC(=O)[C@@H](C(C)=O)[C@@H]1C | < 4.30 | < 4.30 | < 4.30 | < 4.30 | –
– | CC(=O)[C@]1(C)C(=O)O[C@@H](OC(=O)C(C)(C)C)[C@H]1C | 5.00 | 5.40 | 5.05 | 5.15 | –

From ChEMBL document CHEMBL1128871, “Synthesis and in vitro cytotoxicity of ()-acetomycin and related analogs” (Bioorg Med Chem Lett, 1995)
